# From ChEMBL document CHEMBL3286387, “α-Tetralone derivatives as inhibitors of monoamine oxidase” (Bioorg Med Chem Lett, 2014)
# Target: T1, Amine oxidase [flavin-containing] A (Homo sapiens, UniProt P21397)
# T1 sequence (P21397 whole entry): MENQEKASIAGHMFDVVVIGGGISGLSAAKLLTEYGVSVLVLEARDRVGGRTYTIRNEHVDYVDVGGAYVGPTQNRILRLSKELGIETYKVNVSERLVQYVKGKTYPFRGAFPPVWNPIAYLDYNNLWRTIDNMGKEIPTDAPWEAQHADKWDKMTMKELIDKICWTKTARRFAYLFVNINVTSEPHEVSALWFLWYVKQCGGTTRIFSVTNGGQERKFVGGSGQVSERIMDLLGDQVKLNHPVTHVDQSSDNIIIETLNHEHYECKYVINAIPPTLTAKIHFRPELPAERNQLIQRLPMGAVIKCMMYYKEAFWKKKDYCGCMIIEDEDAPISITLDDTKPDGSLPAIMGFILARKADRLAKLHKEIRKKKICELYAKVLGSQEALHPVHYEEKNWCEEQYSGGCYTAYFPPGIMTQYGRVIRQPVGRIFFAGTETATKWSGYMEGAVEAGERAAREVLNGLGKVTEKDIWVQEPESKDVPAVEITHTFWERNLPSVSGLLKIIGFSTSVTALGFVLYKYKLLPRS
# Assay: Reversible inhibition of recombinant human MAO-A using kynuramine as substrate assessed as enzyme residual activity at 4 times IC50 incubated for 15 mins measured after 24 hrs of dialysis by fluorescence spectrophotometry analysis relative to control
row,SMILES,Activity
1,C#CCN(C)Cc1ccccc1 [PARGYLINE],1.6%
2,N#Cc1cccc(COc2ccc3c(c2)CCCC3=O)c1,108%

# Target: T2, Amine oxidase [flavin-containing] B (Homo sapiens, UniProt P27338)
# T2 sequence (P27338 whole entry): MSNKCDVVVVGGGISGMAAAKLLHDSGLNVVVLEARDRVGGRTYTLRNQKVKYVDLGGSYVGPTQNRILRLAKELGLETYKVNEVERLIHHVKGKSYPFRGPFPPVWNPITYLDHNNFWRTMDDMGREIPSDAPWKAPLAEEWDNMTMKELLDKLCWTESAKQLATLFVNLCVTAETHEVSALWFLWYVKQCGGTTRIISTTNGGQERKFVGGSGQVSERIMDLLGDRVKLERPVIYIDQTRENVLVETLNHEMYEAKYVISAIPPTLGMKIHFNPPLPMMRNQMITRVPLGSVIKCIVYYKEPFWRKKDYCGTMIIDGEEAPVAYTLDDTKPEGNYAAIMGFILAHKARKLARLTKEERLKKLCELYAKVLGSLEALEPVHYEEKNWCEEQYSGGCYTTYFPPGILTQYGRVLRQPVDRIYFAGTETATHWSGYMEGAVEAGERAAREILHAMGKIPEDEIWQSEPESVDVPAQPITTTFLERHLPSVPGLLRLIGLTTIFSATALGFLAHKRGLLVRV
# Assay: Reversible inhibition of recombinant human MAO-B using kynuramine as substrate assessed as enzyme residual activity at 4 times IC50 incubated for 15 mins measured after 24 hrs by fluorescence spectrophotometry analysis relative to control
row,Activity,SMILES
1,23%,O=C1CCCc2cc(OCc3cccc(I)c3)ccc21

# Target: T1, Amine oxidase [flavin-containing] A
# Assay: Reversible inhibition of recombinant human MAO-A using kynuramine as substrate assessed as enzyme residual activity at 4 times IC50 incubated for 15 mins measured after 24 hrs by fluorescence spectrophotometry analysis relative to control
row,Activity,SMILES
1,44%,N#Cc1cccc(COc2ccc3c(c2)CCCC3=O)c1

# Organism: Homo sapiens
# Assay: Selectivity index, ratio of IC50 for recombinant human MAO-A to IC50 for recombinant human MAO-B
row,SMILES,Ratio IC50
1,O=C1CCCc2cc(OCc3ccc(C(F)(F)F)cc3)ccc21,91
2,O=C1CCCc2cc(OCc3ccccc3)ccc21,13
3,O=C1CCCc2cc(OCc3ccc(I)cc3)ccc21,346
4,O=C1CCCc2cc(OCc3cccc(I)c3)ccc21,287
5,O=C1CCCc2cc(O)ccc21,0.7
6,O=C1CCCc2cc(OCCCc3ccccc3)ccc21,36
7,O=C1CCCc2ccccc21,0.8
8,Cc1ccc(COc2ccc3c(c2)CCCC3=O)cc1,190
9,N#Cc1ccc(COc2ccc3c(c2)CCCC3=O)cc1,60
10,O=C1CCCc2cc(OCCc3ccccc3)ccc21,40

# Further lines, results first:
row,Ratio IC50,SMILES
1,23,O=C1CCCc2cc(OCc3cccc(F)c3)ccc21
2,35,O=C1CCCc2cc(OCc3ccc(Br)cc3)ccc21
3,24,O=C1CCCc2cc(OCc3cccc(Br)c3)ccc21
4,14,O=C1CCCc2cc(OCc3cccc(Cl)c3)ccc21
5,0.3,N#Cc1cccc(COc2ccc3c(c2)CCCC3=O)c1

# Target: T2, Amine oxidase [flavin-containing] B
# Assay: Inhibition of recombinant human MAO-B using kynuramine as substrate assessed as 4-hydroxyquinoline production after 30 mins by fluorescence spectrophotometry analysis
row,SMILES,IC50
1,O=C1CCCc2cc(OCc3ccc(C(F)(F)F)cc3)ccc21,6 nM
2,O=C1CCCc2cc(OCc3ccccc3)ccc21,63 nM
3,O=C1CCCc2cc(OCc3ccc(I)cc3)ccc21,6.5 nM
4,O=C1CCCc2cc(OCc3cccc(I)c3)ccc21,4.5 nM
5,O=C1CCCc2cc(O)ccc21,66400 nM
6,O=C1CCCc2cc(OCCCc3ccccc3)ccc21,32 nM
7,O=C1CCCc2ccccc21,18600 nM
8,Cc1ccc(COc2ccc3c(c2)CCCC3=O)cc1,11 nM
9,N#Cc1ccc(COc2ccc3c(c2)CCCC3=O)cc1,11 nM
10,O=C1CCCc2cc(OCCc3ccccc3)ccc21,33 nM

# More lines, now with the values ahead:
row,IC50,SMILES
1,17 nM,O=C1CCCc2cc(OCc3cccc(F)c3)ccc21
2,9 nM,O=C1CCCc2cc(OCc3ccc(Br)cc3)ccc21
3,9 nM,O=C1CCCc2cc(OCc3cccc(Br)c3)ccc21
4,15 nM,O=C1CCCc2cc(OCc3cccc(Cl)c3)ccc21
5,78 nM,N#Cc1cccc(COc2ccc3c(c2)CCCC3=O)c1

# Target: T1, Amine oxidase [flavin-containing] A
# Assay: Inhibition of recombinant human MAO-A using kynuramine as substrate assessed as 4-hydroxyquinoline production after 30 mins by fluorescence spectrophotometry analysis
row,SMILES,IC50
1,O=C1CCCc2cc(OCc3ccc(C(F)(F)F)cc3)ccc21,547 nM
2,O=C1CCCc2cc(OCc3ccccc3)ccc21,792 nM
3,O=C1CCCc2cc(OCc3ccc(I)cc3)ccc21,2250 nM
4,O=C1CCCc2cc(OCc3cccc(I)c3)ccc21,1290 nM
5,O=C1CCCc2cc(O)ccc21,43800 nM
6,O=C1CCCc2cc(OCCCc3ccccc3)ccc21,1160 nM
7,O=C1CCCc2ccccc21,14800 nM
8,Cc1ccc(COc2ccc3c(c2)CCCC3=O)cc1,2090 nM
9,N#Cc1ccc(COc2ccc3c(c2)CCCC3=O)cc1,656 nM
10,O=C1CCCc2cc(OCCc3ccccc3)ccc21,1320 nM

# Continued, values first:
row,IC50,SMILES
1,392 nM,O=C1CCCc2cc(OCc3cccc(F)c3)ccc21
2,311 nM,O=C1CCCc2cc(OCc3ccc(Br)cc3)ccc21
3,266 nM,O=C1CCCc2cc(OCc3ccc(F)cc3)ccc21
4,238 nM,O=C1CCCc2cc(OCc3ccc(Cl)cc3)ccc21
5,212 nM,O=C1CCCc2cc(OCc3cccc(Br)c3)ccc21
6,207 nM,O=C1CCCc2cc(OCc3cccc(Cl)c3)ccc21
7,24 nM,N#Cc1cccc(COc2ccc3c(c2)CCCC3=O)c1

# Target: T2, Amine oxidase [flavin-containing] B
# Assay: Competitive inhibition of recombinant human MAO-B using kynuramine as substrate by Lineweaver-Burk plot analysis
row,Ki,SMILES
1,7.1 nM,O=C1CCCc2cc(OCc3cccc(I)c3)ccc21

# Target: T1, Amine oxidase [flavin-containing] A
# Assay: Competitive inhibition of recombinant human MAO-A using kynuramine as substrate by Lineweaver-Burk plot analysis
row,Ki,SMILES
1,25 nM,N#Cc1cccc(COc2ccc3c(c2)CCCC3=O)c1
